This series is described as follows: in vitro. The settings on record: human, hela cells, % viability.

This note sets out measurements from paper PMC12040169 (PLOS Biology, 2025).

As to `Cc1cccc(=O)n1CCCn1cc(-c2ncc[nH]2)nn1` [CBK307401], the viability at 28.5 h, 10 µM stood at 90.7%.
On to `O=C(/C=C/c1ccccc1Cl)NCCc1ccccc1` [CBK261794], for which the viability at 28.5 h, 10 µM was 97.5%.
Regarding `COCc1ccccc1Cn1cnc2ccccc21` [CBK267496], the viability at 28.5 h, 10 µM is 100%.
In the case of `O=C(CN1CCCC1=O)NC1(C(F)(F)F)NC(=O)N(c2ccc(F)cc2)C1=O` (centres unmarked) [CBK268057], the viability at 28.5 h, 10 µM was found to be 98.1%.
As for `CCc1cc(CNC(=O)c2ccc(C)c(-n3nc(C)cc3C)c2)on1` [CBK281557], the viability at 28.5 h, 10 µM is 91.7%.
Same read-out and setting: the value for `O=C(O)CCNc1ccc(Br)cc1C(=O)O` [CBK087259] was 96.9%.
Same read-out and setting: as for `C=CCNC(=O)C1CCN(c2nc3ccccc3n2C)CC1` [CBK283955], the figure is 92%; as for `O=S(=O)(Nc1ccc(N2CCNCC2)c2ccccc12)c1ccc(Cl)s1` [CBK003146C], 104%; as for `COc1ccc(Cl)cc1CN(C)C(=O)c1ccc[nH]c1=O` [CBK305933], 90.6%.
Same read-out and setting: as for `O=C(NC1CCNC1)c1cccc(S(=O)(=O)NCc2ccsc2)c1` (centres unmarked) [CBK306706], the figure is 88%; as for `CCn1ncc(CN2C3CCC2CC(O)(c2ccc(F)cc2)C3)c1C` (centres unmarked) [CBK282973], 100%; as for `Oc1n[nH]c2c1CCC2` [CBK260873], 95.4%.
As to `Cc1c(NC(=O)CSc2nnc(-c3cccc([N+](=O)[O-])c3)n2C)c(=O)n(-c2ccccc2)n1C` [CBK266757], the viability at 28.5 h, 10 µM was 95.4%.
On the same count and under the same terms, the value for `Cc1noc(C)c1C(=O)N1CCC[C@H](C(=O)c2ccc(F)cc2)C1` [CBK284334] was 81.7%.
On the same count and under the same terms, as for `COc1ccccc1NS(=O)(=O)c1ccc(N2C[C@@H](C)N[C@@H](C)C2)c2ccccc12` [CBK200012C], the figure is 85.3%; as for `Cc1cc2ccccc2n1CCC(=O)NC1CCCOC1` (centres unmarked) [CBK283152], 91.1%; as for `COc1ccc([C@@]23CC[C@@H](NC(=O)c4cc(F)c(Cl)cc4Cl)C[C@@H]2N(C)CC3)cc1OC` [CBK074264T], 97.4%.
The same measure, in the same setting: the value for `CCCc1cc(C(=O)NC(C)(C)CN2CCCC(C)C2)[nH]n1` (centres unmarked) [CBK282467] was 89.1%.
Consider `COc1ccc(CN2CCN(Cc3cc(Br)ccc3O)CC2)cc1` [CBK263640], for which the viability at 28.5 h, 10 µM (bulk resorufin, single well) is 99.4%.
`COC(=O)CNC(c1cc(Br)ccc1N)c1ccccc1Cl` (centres unmarked) [CBK262605]: the viability at 28.5 h, 10 µM turned out to be 89%.
On the same count and under the same terms, as for `COc1ccc(S(=O)(=O)N2CCC(C(=O)NCc3cccnc3)CC2)cc1Cl` [CBK267613], the figure is 95.2%.
Still for that read-out and setting: the value for `O=C(/C=C/c1ccccc1)Oc1cccc(NC(=O)C2CC(=O)N(c3ccccc3)C2)c1` (centres unmarked) [CBK264330] was 109%.
On the same count and under the same terms, the value for `Cc1cc2c(o1)c1cnn(CC(=O)N3CCCC(C)C3)c(=O)c1n2C` (centres unmarked) [CBK284218] was 85%; that for `Cc1cc(C)nc(NS(=O)(=O)c2ccc(Nc3ccc4nonc4c3[N+](=O)[O-])cc2)n1` [CBK261444] was 103%.
For the molecule `COc1ccccc1CCCNC(=O)CC1CCCCN1C` (centres unmarked) [CBK282694], the viability at 28.5 h, 10 µM stood at 101%.
Take `Cc1ccc(CCn2cc(C)nc2C)cn1` [CBK021231]: the viability at 28.5 h, 10 µM turned out to be 106%.
As for `CC(=O)Nc1ccc(C(=O)NCc2ccc(OCC(F)(F)F)cc2)cc1` [CBK305732], the viability at 28.5 h, 10 µM was 98%.
Regarding `Cc1ccc(C2(O)CC3CCC(C2)N3C(=O)C2CCC2)cc1` (centres unmarked) [CBK103860], the viability at 28.5 h, 10 µM turned out to be 99.2%.
In the case of `Nc1ncc(-c2ccc(Cl)cc2)c(C2CCCN(C(=O)C3CCCC3)C2)n1` (centres unmarked) [CBK285571], the viability at 28.5 h, 10 µM was 95.1%.
On the same count and under the same terms, as for `N#CCCCN1CCN(c2nccnc2OCc2cccnc2)CC1` [CBK083144], the figure is 96.3%; as for `CCCCC1CCC(C(=O)O)CC1` (centres unmarked) [CBK122493], 82.4%.
The same measure, in the same setting: the value for `COCC(=O)N1CCc2sccc2C1c1ccc(NC(=O)c2ccc(F)cc2)cc1` (centres unmarked) [CBK286435] was 93.8%; that for `O=C(O)CC(C(=O)O)N1C(=O)/C(=C\C(Cl)=C/c2ccc([N+](=O)[O-])cc2)SC1=S` (centres unmarked) [CBK261013] was 99.2%; that for `CN1C2CCC1CC(OC(=O)CCN1CCOCC1)C2` (centres unmarked) [CBK261465] was 97.4%.
Still for that read-out and setting: as for `COc1ccccc1N1CCN(CC(CC(=O)Nc2ccc3c(c2)OCO3)C(=O)O)CC1` (centres unmarked) [CBK286822], the figure is 95%; as for `CCS(=O)(=O)N1CCN(Cc2ccc3c(c2)OCO3)CC1` [CBK074545], 92.2%.
As for `CCC1(c2ccccc2)OCC(C2CCCCN2)O1` (centres unmarked) [CBK023284C], the viability at 28.5 h, 10 µM stood at 85.7%.
The same measure, in the same setting: as for `COc1cccc(C(=O)NCC(c2cccs2)N2CCOCC2)c1` (centres unmarked) [CBK305075], the figure is 90.7%.
Still for that read-out and setting: as for `c1cncc(COc2cc(N3CCCC3)ncn2)c1` [CBK115894], the figure is 96.9%; as for `Cn1c(SCC(=O)Nc2ccnc3ccccc23)nnc1-c1ccncc1` [CBK267867], 105%; as for `O=C(Cc1ccsc1)N1CCCC1c1nc2ccccc2[nH]1` (centres unmarked) [CBK283740], 87.7%.
The same measure, in the same setting: the value for `CCc1c(C)nc2c(C(=O)NC(CC)COC)cnn2c1C` (centres unmarked) [CBK162133] was 97.5%; that for `Fc1ccc(-c2cncc(NCCCN3CCOCC3)n2)c(F)c1` [CBK065867] was 91.3%; that for `OCCN1CC2(CCN(Cc3c(F)cccc3F)CC2)c2ccccc21` [CBK137010] was 109%.
`CC(=O)Nc1ccc(CN2CCCCCC2c2cc(C)no2)cc1` (centres unmarked) [CBK285415]: the viability at 28.5 h, 10 µM turned out to be 101%.
Still for that read-out and setting: the value for `COc1cccc2ncn(CCCc3nc(C)c(C)s3)c(=O)c12` [CBK307208] was 95.2%; that for `Cc1ccc(Cl)cc1NC(=O)c1ccc(NCCN2C(=O)C3C4C=CC(C4)C3C2=O)c([N+](=O)[O-])c1` (centres unmarked) [CBK268357] was 92.2%.
Still for that read-out and setting: as for `OC1CCC(Nc2cncc(-c3cccc(F)c3)n2)CC1` (centres unmarked) [CBK065449], the figure is 97.8%; as for `CCn1c(COc2ccccc2Cl)nnc1SCC(=O)N1c2ccccc2Sc2ccccc21` [CBK265957], 114%; as for `CCOC(=O)C1=C(C)NC(=O)NC1c1ccc(-c2ccccc2F)o1` (centres unmarked) [CBK263867], 95.7%.
Turning to `Cc1ccc(NC(=O)CN2C(=O)N/C(=C\c3cc(Br)cc(Cl)c3O)C2=O)cc1` [CBK265018], the viability at 28.5 h, 10 µM turned out to be 98.7%.
Same read-out and setting: as for `O=C(NCCCN1CCOCC1)c1ccc(/C=N/O)nc1` [CBK264468], the figure is 107%; as for `Cn1c(COc2cncc(Cl)n2)cc2ccccc21` [CBK176002], 89.9%; as for `Cc1ccc(C)n1NC(=O)c1ccccc1[N+](=O)[O-]` [CBK266151], 104%.
On the same count and under the same terms, the value for `O=[N+]([O-])c1ccc2c(ccn2C2CC(O)C(CO)O2)c1` (centres unmarked) [CBK201163] was 95%; that for `COc1ccc(CNC(=O)C[C@@H]2[C@H](O)CCC3[C@]4(C)CO[C@@H](CN)O[C@@H]4CC[C@]32C)cc1` (some centres unmarked) [CBK289575] was 109%; that for `COc1nc(OC)nc(OC2=CC(=O)CC(C)(C)C2)n1` [CBK020772] was 95.5%.
On the same count and under the same terms, as for `c1coc(CNc2nc(-c3ccoc3)cn3ccnc23)c1` [CBK066610], the figure is 98.8%; as for `Cc1ccc(OCCSc2nc3ccccc3n2CC(=O)O)c(C(C)C)c1` [CBK300483], 105%.
Consider `O=[N+]([O-])c1nn(-c2ccc(Cl)cc2)[n+]([O-])c1NCc1ccccn1` [CBK268270], for which the viability at 28.5 h, 10 µM came to 96.6%.
The same measure, in the same setting: as for `Cn1ncc2c1CCCN(C(=O)COc1ccccc1F)C2` [CBK285324], the figure is 101%; as for `Cc1csc(C(Cc2ccsc2)NC(=O)C2CC2C)n1` (centres unmarked) [CBK282226], 86.7%.
On the same count and under the same terms, as for `Cc1cc(NC(=O)c2cc3ccccc3o2)nc2c1c(=O)oc1ccccc12` [CBK291256], the figure is 90.2%; as for `OC1(Cn2cnc3ccccc32)CCN(Cc2ccccc2F)CC1` [CBK284662], 85.3%.
Same read-out and setting: as for `O=C(Cc1ccc2c(c1)CCCO2)NCc1ccccc1-n1ccnc1` [CBK281463], the figure is 86.6%; as for `O=C(O)C1CCCCC1C(=O)Nc1ccc(S(=O)(=O)N2CCOCC2)cc1` (centres unmarked) [CBK268010], 104%.
For the molecule `CN1[C@@H](CCC(=O)N2CCc3ccccc32)CNC(=O)[C@@H]2[C@H]1CCN2Cc1ccc(O)cc1` [CBK289021], the viability at 28.5 h, 10 µM was 88.9%.
Still for that read-out and setting: as for `Cn1cc(C(=O)N2CCc3ccccc32)c2ccccc21` [CBK200407], the figure is 80.6%.
Consider `Cc1ccc2c(c1)nc(CNC(=O)NCCc1nc(C)no1)n2C` [CBK305552], for which the viability at 28.5 h, 10 µM came out at 98.8%.
Same read-out and setting: the value for `O=C(NC(=S)Nc1ccc2oc(-c3ccncc3)nc2c1)c1ccccc1[N+](=O)[O-]` [CBK264106] was 87.3%.
Still for that read-out and setting: the value for `O=C(Nc1ccccc1)c1ccc(S(=O)(=O)N2CCC(C(=O)O)CC2)cc1` [CBK267806] was 89.7%; that for `COc1ccccc1CCCNC(=O)c1ccc(=O)n(C)c1` [CBK282636] was 82.7%.
The same measure, in the same setting: the value for `CCc1nnc(N/N=C/c2cccs2)n1N` [CBK026233C] was 97.9%.
Consider `O=C(c1cccc(S(=O)(=O)N2CCOCC2)c1)N(Cc1ccc(F)cc1)Cc1ccco1` [CBK265885], for which the viability at 28.5 h, 10 µM was found to be 92.8%.
Take `COc1ccc(-c2cc(C(=O)Nc3nc4ccc(S(C)(=O)=O)cc4s3)c3ccccc3n2)cc1` [CBK033551]: the viability at 28.5 h, 10 µM turned out to be 95.9%.
As to `C[C@H](Nc1nc(-c2cccc(C(=O)NCCN(C)C)c2)cnc1N)c1ccccc1` [CBK063714], the viability at 28.5 h, 10 µM amounted to 112%.
On the same count and under the same terms, the value for `O=C(O)/C=C/C(=O)Nc1ccccc1C(=O)O` [CBK261461] was 101%; that for `O=C(c1ccc2c(c1)OCCO2)N1CCC2(CCN(C(=O)c3cc(F)c(F)cc3F)C2)C1` (centres unmarked) [CBK131410] was 98.2%.
For `CCCn1ccc(CNCC(c2ccnn2C)C(C)C)c1` (centres unmarked) [CBK304861], the viability at 28.5 h, 10 µM stood at 87%.
Still for that read-out and setting: as for `Fc1cccc(-c2nc3cnccn3c2NCc2ccco2)c1` [CBK282323], the figure is 93.5%.

One may read the viability as a read-out of living cells in per cent, often relative to untreated cells.
